From patent US9416115B2, “Fused heterocyclic compounds as ion channel modulators” (Gilead Sciences, Inc., priority 2013, dated 2016) come the findings set out here.

One assay deals with T1, hNav1.3 (SCN3A) (Homo sapiens, UniProt Q9NY46).
T1 construct: expressed in transfected cells
The assay can be described thus: Voltage-dependent inhibition of the Nav1.3 sodium channel. Format: cell-based. Conditions: voltage-dependent block of peak current, read-out: Nav 1.3-VDB 1 uM. Here is the method: HEK-293 cells stably expressing wild-type (WT) hNav1.3 (SCN3A NCBI # NP 001075, SCN1B NCBI # NM 001037.4, SCN2B NCBI # NM 004588.2) were used to record INa. Cells are maintained with standard tissue culture procedures and stable channel expression is maintained with 800 ug/mL G418 and 3 ug/mL Puromycin in the culture medium. Unless otherwise noted, all reagents are purchased from Sigma-Aldrich (St Louis, Mo., U.S.A.).
Assays measuring Voltage-Dependent Block (VDB) of Nav1.3 are performed on an automated electrophysiology platform, QPatch 16X or QPatch HT (Sophion Bioscience, Copenhagen, Denmark), using the whole cell patch clamp technique to measure currents through the cell membrane. Series resistance compensation is set to 100% and series resistance and whole-cell compensation are performed automatically. Currents stored in the Sophion Bioscience Oracle database (Sophion Bioscience, Copenhagen, Denmark). Analysis is performed using QPatch Assay software and data are compiled in Excel 2010 (Microsoft, Seattle, Wash., U.S.A.).
The internal (pipette) solution consists of (in mM) 105 CsF, 10 NaF, 20 CsCl, 2 EGTA, 10 HEPES, 10 Dextrose with a pH of 7.35 and osmolarity of 300 mOsmol/kg. The external (bath) solution contains in (mM): 80 NaCl, 60 Choline-Cl, 4 KCl, 1.8 CaCl2, 1 MgCl2, 10 dextrose, 10 HEPES, with a pH of 7.35 and osmolarity of 310 mOsmol/kg. Experiments are carried out at 23-25° C.
Compound stocks are routinely made by the Gilead Sample Bank in vials to 10 mM in dimethyl sulfoxide (DMSO). In some cases, when compounds are not soluble in DMSO, they are made in 100% ethanol. Stocks are sonicated as necessary. Compounds are diluted in extracellular solution using a MicroLab Nimbus (Hamilton Robotics, Reno, Nev.) to 1 μM in glass vials and transferred to glass well plates before robotic addition to the cells.
Cells are allowed to stabilize for 10 min after establishment of the whole-cell configuration before current is measured. The test compound is applied 3 times at 120 second intervals to allow for equilibration. Currents were leak subtracted using a P/4 procedure, low-pass Bessel filtered at 5 kHz and digitized at 25 kHz. Results are presented as mean percentage inhibition.
Voltage-dependent block of Nav1.3 peak current was measured during a voltage step to 0 mV (20 ms) following a voltage step pre-conditioning steps (−55 mV for 10 sec followed by −120 mV for 10 ms). The holding potential was −120 mV and this voltage protocol induces half maximal inactivation of Nav1.3. The voltage protocol for VDB was performed every 45 seconds in the absence and presence of compound and percentage inhibition was calculated with respect to the compound free condition.

The subject of assay [1] is Ischemia-Induced ST Segment Elevation in Anesthetized Rabbits. The assay can be described thus: Ischemia-induced ST segment elevation in anesthetized rabbits. Format: in vivo, New Zealand rabbits. Conditions: iv infusion; 15 min LAD ischemia after 30 min of compound administration. Here is the method: This study was undertaken to determine the anti-ischemic effects of compounds of the present disclosure in an in vivo rabbit model.
Female New Zealand rabbits (3.0-4.0 kg) were purchased from Western Oregon Rabbitry. Animals were housed on a 12-h light and dark cycle and received standard laboratory chow and water. All experiments were performed in accordance with the Guide for the Care and Use of Laboratory Animals published by The National Research Council and with the experimental protocol approved by the Institutional Animal Care Committee of Gilead Sciences, Inc.
Rabbits were anesthetized with ketamine (35 mg/kg) and xylazine (5 mg/kg) intramuscular injection (im). A tracheotomy was performed and the trachea was intubated with an endotracheal tube. The animal was ventilated with room air supplemented with oxygen using a pressure control animal ventilator (Kent Scientific Corp., Torrington, Conn.) at a respiratory rate of 40 strokes/min and peak inspiration pressure of 10 mmH2O, which was adjusted to keep blood gases and pH within the physiological range (iSTAT clinic analyzer, Heska Corp.; Waukesha, Wis.). The left femoral artery was cannulated for the measurement of blood pressure (BP). Blood samples were also withdrawn from femoral artery. The right external jugular vein was cannulated for drug/vehicle administration. Needle electrodes were inserted subcutaneously into the limbs for recording of the surface electrocardiogram (ECG).
The heart was exposed via an incision in the 4th intercostal space (4th and/or 5th ribs were cut for a clear surgical vision). The chest was opened and a pericardial cradle was formed using 4 retractors. A coronary artery occluder, comprised of a snare made of 5 cm PE-10 tubing with a 6-0 Prolene polypropylene suture in it, was placed loosely around the left anterior descending artery (LAD) at its origin. Two unipolar electrodes, made with teflon coated silver wire attached to a small patch of filter paper, were attached on the surface of the ischemic and normal regions of the left ventricle to record epicardial electrocardiogram.
Reference electrodes were placed in the open incision of the neck. The body temperature of the animal was monitored via a rectal thermometer and maintained at 37-40° C. by adjusting the surface temperature of the surgical table. Regional ischemia (15 min) was induced by ligating the LAD followed by 15 min of reperfusion caused by releasing the ligation. The heart was excised at the end of the experiment and the LAD was re-ligated. The ischemic area was visualized by perfusing the heart with 1% Evans blue in saline and calculated as a percentage of total ventricular weight. Rabbits with ischemic area less than 10% or larger than 25% were excluded from the analysis. Animals were randomly assigned to vehicle and test compound groups. Test compounds were dissolved in 15% NMP, 10% Solutol and 75% de-ionized water (dH2O). Test compounds were given as an iv infusion at a rate targeted to reach plasma concentrations of 1 μM. After 30 min of compound administration the heart was subjected to 15 min of ischemia followed by 15 min of reperfusion.

T1 sequence (Q9NY46 1-1951 isoform Q9NY46-2): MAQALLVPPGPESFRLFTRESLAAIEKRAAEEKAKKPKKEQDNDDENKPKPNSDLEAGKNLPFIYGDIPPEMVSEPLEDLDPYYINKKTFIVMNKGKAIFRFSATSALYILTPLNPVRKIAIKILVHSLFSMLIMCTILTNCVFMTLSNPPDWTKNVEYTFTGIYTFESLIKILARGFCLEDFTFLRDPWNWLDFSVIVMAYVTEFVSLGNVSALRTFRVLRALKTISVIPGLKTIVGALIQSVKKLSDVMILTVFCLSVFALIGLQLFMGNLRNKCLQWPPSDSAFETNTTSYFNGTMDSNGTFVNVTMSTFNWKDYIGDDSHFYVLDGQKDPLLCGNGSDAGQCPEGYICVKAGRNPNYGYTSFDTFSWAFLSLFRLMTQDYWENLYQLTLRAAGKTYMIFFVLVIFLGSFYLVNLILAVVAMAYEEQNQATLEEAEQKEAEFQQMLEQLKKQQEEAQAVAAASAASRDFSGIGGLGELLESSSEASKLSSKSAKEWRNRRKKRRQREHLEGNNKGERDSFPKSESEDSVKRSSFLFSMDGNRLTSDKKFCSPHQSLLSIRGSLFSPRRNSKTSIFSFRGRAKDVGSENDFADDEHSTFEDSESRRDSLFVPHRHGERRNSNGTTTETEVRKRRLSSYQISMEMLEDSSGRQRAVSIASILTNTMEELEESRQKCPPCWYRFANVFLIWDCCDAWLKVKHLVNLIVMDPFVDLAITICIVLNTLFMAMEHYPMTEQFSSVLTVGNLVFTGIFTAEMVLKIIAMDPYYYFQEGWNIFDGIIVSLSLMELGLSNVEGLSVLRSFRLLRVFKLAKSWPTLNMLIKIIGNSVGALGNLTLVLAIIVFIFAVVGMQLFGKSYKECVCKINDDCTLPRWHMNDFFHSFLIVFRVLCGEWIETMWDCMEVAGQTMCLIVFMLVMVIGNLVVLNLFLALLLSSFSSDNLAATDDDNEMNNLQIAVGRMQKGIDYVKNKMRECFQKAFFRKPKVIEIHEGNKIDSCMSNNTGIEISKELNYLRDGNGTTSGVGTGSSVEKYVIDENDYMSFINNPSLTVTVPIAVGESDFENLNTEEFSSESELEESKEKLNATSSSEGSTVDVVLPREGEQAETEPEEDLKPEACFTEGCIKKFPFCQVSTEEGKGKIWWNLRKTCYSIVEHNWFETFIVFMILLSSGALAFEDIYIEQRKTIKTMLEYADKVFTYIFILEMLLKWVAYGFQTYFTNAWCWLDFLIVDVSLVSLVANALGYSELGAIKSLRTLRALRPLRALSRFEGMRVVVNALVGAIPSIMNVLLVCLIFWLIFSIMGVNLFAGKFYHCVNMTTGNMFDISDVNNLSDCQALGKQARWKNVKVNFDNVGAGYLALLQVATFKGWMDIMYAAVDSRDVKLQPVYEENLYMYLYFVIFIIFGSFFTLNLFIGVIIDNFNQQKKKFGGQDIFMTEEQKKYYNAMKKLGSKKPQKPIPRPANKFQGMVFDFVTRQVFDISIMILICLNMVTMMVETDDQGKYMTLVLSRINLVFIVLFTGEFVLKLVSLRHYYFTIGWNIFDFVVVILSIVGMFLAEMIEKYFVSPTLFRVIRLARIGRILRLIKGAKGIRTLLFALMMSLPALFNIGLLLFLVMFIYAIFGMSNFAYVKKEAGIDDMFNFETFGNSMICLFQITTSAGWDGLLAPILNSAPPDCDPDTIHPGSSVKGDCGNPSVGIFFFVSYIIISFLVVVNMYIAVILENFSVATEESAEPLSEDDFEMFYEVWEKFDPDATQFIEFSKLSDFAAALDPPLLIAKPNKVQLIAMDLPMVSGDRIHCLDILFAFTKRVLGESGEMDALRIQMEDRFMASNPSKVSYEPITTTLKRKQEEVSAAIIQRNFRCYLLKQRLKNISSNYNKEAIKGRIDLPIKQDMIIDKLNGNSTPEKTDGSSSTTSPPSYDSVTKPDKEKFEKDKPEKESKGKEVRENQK
T1 sequence (Q07699 19-218 partner): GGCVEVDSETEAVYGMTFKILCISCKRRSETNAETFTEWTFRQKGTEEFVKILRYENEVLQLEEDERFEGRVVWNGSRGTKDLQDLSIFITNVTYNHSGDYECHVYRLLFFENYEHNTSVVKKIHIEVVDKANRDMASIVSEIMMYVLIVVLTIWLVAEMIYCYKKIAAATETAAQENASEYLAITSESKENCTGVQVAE
T1 sequence (O60939 30-215 partner): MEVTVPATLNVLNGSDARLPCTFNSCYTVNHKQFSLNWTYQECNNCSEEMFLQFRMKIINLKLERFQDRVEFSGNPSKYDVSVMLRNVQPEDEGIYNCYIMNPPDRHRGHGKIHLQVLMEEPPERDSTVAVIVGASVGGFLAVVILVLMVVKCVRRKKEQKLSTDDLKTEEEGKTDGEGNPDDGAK

As for `O=C1CC[C@H](COc2noc3ccc(-c4ccc(OC(F)(F)F)cc4)cc23)N1` [Example 61, (R)-5-(((5-(4-(trifluoromethoxy)phenyl)benzo[d]isoxazol-3-yl)oxy)methyl)pyrrolidin-2-one], the inhibition at 1 µM at hNav1.3 (SCN3A) worked out at 8.6%.

On to `Cc1cc(OC(F)(F)F)ccc1-c1cc2c(OCc3ncccn3)noc2cc1C` [Example 29, 6-methyl-5-(2-methyl-4-(trifluoromethoxy)phenyl)-3-(pyrimidin-2-ylmethoxy)benzo[d]isoxazole], for which, on hNav1.3 (SCN3A), the inhibition at 1 µM amounted to 39.5%.

With `COc1cc(-c2ccc(OC(F)(F)F)cc2C)cc2c(OCc3ncccn3)noc12` [Example 25, 7-methoxy-5-(2-methyl-4-(trifluoromethoxy)phenyl)-3-(pyrimidin-2-ylmethoxy)benzo[d]isoxazole], at hNav1.3 (SCN3A), the inhibition at 1 µM came to 12.3%.

In the case of `COc1cc(-c2ccc(C(F)(F)F)cc2F)cc2c(OCc3ncccn3)noc12` [Example 24, 5-(2-fluoro-4-(trifluoromethyl)phenyl)-7-methoxy-3-(pyrimidin-2-ylmethoxy)benzo[d]isoxazole], on hNav1.3 (SCN3A), the inhibition at 1 µM is under 5%.

For `FC(F)(F)COc1ccc(-c2ccc3onc(OCc4ncccn4)c3c2)cn1` [Example 21, 3-(pyrimidin-2-ylmethoxy)-5-(6-(2,2,2-trifluoroethoxy)pyridin-3-yl)benzo[d]isoxazole], the inhibition at 1 µM at hNav1.3 (SCN3A) is 11.2%. The “Rabbit ST Segment (Percent reduction)” value in assay [1] came to 66 Percent reduction.

Consider `FC1(F)Oc2ccc(-c3ccc4onc(OCc5ncccn5)c4c3)cc2O1` [Example 30, 5-(2,2-difluorobenzo[d][1,3]dioxol-5-yl)-3-(pyrimidin-2-ylmethoxy)benzo[d]isoxazole], for which, at hNav1.3 (SCN3A), the inhibition at 1 µM came out at 21.5%.

As for `FC(F)(F)Oc1ccc(-c2ccc3onc(OCc4cn5ccccc5n4)c3c2)cc1` [Example 51, 3-(imidazo[1,2-a]pyridin-2-ylmethoxy)-5-(4-(trifluoromethoxy)phenyl)benzo[d]isoxazole], the inhibition at 1 µM at hNav1.3 (SCN3A) was 26.6%.
